Laboratory results from ChEMBL document CHEMBL3046357, “Inhibitors of biotin biosynthesis as potential herbicides” (2004).

What follows are compounds tested on Arabidopsis thaliana (assay: Herbicidal activity against Arabidopsis thaliana after 3 weeks).
Assay type: functional

Question: Which GR50 does the source give for `COC(=O)CCCCCC(=O)C(N)CS.Cl` (stereo not given) here?
Answer: Its GR50 is 120 ppm.

Question: Which GR50 does the source give for `Cl.NC(CO)C(=O)CCCCCC(=O)O` (stereo not given) here?
Answer: The GR50 was 100 ppm.

Question: With `COC(=O)CCCCCC(=O)C(N)CO.Cl` (stereo not given) as the compound, how does the GR50 read?
Answer: Its GR50 is 53 ppm.

Question: Which GR50 does the source give for `CC(O)C(N)C(=O)CCCCCC(=O)O.Cl` (stereo not given) here?
Answer: Its GR50 is 250 ppm.

Question: How did the GR50 turn out when `COC(=O)CCCCCC(=O)C(N)C(C)O.Cl` (stereo not given) was run?
Answer: The GR50 was 100 ppm.

Question: With `COC(=O)CCCCC/C(CN)=N\O.Cl` as the compound, how does the GR50 read?
Answer: Its GR50 is 53 ppm.

Question: For `Cl.NC/C(CCCCCC(=O)O)=N/O`, which GR50 is on record?
Answer: Its GR50 is 40 ppm.

Question: How did the GR50 turn out when `CCC(N)/C(CCCCCC(=O)O)=N/O.Cl` (stereo not given) was run?
Answer: The GR50 was over 780 ppm.

Question: How did the GR50 turn out when `CC(C)C(N)/C(CCCCCC(=O)O)=N/O.Cl` (stereo not given) was run?
Answer: The GR50 was over 780 ppm.

Question: Which GR50 does the source give for `Cl.Cl.NCC(N)CCCCCC(=O)O` (stereo not given) here?
Answer: Its GR50 is 53 ppm.

Question: How did the GR50 turn out when `CCC(N)C(N)CCCCCC(=O)O.Cl.Cl` (stereo not given) was run?
Answer: The GR50 was 76 ppm.

Question: How did the GR50 turn out when `CSCCC(N)C(N)CCCCCC(=O)O.Cl.Cl` (stereo not given) was run?
Answer: The GR50 was 0.78 ppm.

Question: Which GR50 does the source give for `CCC1NC(=O)NC1CCCCCC(=O)O` (stereo not given) here?
Answer: Its GR50 is 35 ppm.

Question: `CSCCC1NC(=O)NC1CCCCCC(=O)O` (stereo not given) was tested. Which GR50 did it give?
Answer: Its GR50 is over 780 ppm.

Question: How did the GR50 turn out when `CSCC1NC(=O)NC1CCCCCC(=O)O` (stereo not given) was run?
Answer: Its GR50 is 46 ppm.

Question: For `COC(=O)CCCCCC1NC(=S)NC1CCSC` (stereo not given), which GR50 is on record?
Answer: Its GR50 is over 780 ppm.

Question: With `COC(=O)CCCCCC1NC(=S)NC1CSC` (stereo not given) as the compound, how does the GR50 read?
Answer: The GR50 was 44 ppm.

Question: How did the GR50 turn out when `Cl.NCC(=O)CCCCCC(=O)O` was run?
Answer: The GR50 was 8 ppm.

Question: Which GR50 does the source give for `CCC(N)C(=O)CCCCCC(=O)O.Cl` (stereo not given) here?
Answer: Its GR50 is 43 ppm.

Question: With `CC(C)C(N)C(=O)CCCCCC(=O)O.Cl` (stereo not given) as the compound, how does the GR50 read?
Answer: The GR50 was 37 ppm.

Question: `CSCCC(N)C(=O)CCCCCC(=O)O.Cl` (stereo not given) was tested. Which GR50 did it give?
Answer: The GR50 was over 780 ppm.

Question: `CSCC(N)C(=O)CCCCCC(=O)O.Cl` (stereo not given) was tested. Which GR50 did it give?
Answer: Its GR50 is over 780 ppm.

Question: With `COC(=O)CCCCCC(=O)C(N)CSC.Cl` (stereo not given) as the compound, how does the GR50 read?
Answer: The GR50 was 250 ppm.

Question: `Cl.NC(CS)C(=O)CCCCCC(=O)O` (stereo not given) was tested. Which GR50 did it give?
Answer: The GR50 was over 780 ppm.

Question: With `O=C(O)CCCCCC1CNC(=O)N1` (racemic) as the compound, how does the GR50 read?
Answer: The GR50 was 35 ppm.
